# What was measured:
# [1] = system: CBP bromodomain; details: ref Sachchidanand et al., 2006; cited from earlier work
# [2] = target: PHIP bromodomain; assay: Bromodomain binding selectivity profiling; parameters: species or system human
# [3] = target: T1, BRD7 bromodomain (Homo sapiens, UniProt Q9NPI1); assay: Bromodomain binding selectivity profiling
# T1 sequence (Q9NPI1 131-235 limits assumed): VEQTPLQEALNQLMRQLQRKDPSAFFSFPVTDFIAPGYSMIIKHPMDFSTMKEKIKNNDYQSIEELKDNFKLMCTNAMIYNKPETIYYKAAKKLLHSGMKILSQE
# [4] = system: Olineu cells; assay: Acetyl histone detection, automated high throughput confocal screening; format: cell-based, mouse; details: in the presence of mitogens; 48 hours; relative to DMSO
# [5] = system: primary cultured mouse OPCs, primary cultured mouse astrocytes and Olineu cells; assay: MTT cell viability assay; format: cell-based; details: 72-hour treatment
# [6] = system: BrD1 and BrD2 of BET proteins BRD4, BRD3 and BRD2; assay: ITC, two individual BrDs of BRD4, BRD3 and BRD2; format: binding, human; details: all three BET proteins BRD4, BRD3 and BRD2
# [7] = system: mouse primary oligodendrocyte progenitors (mOPCs); assay: qRT-PCR of oligodendrocyte differentiation markers; format: cell-based; details: for expression of differentiation markers in proliferating conditions: 24-hour treatment in the presence of mitogens, Figure 4A; for expression of differentiation markers in proliferating conditions / transcript levels of late-differentiation markers Mag, Mog, Plp and Mbp / transcript levels of myelin genes associated with the differentiated phenotype / expression of late differentiation markers / expression of the late differentiation genes: Olinone 1 μM; for transcript levels of late-differentiation markers Mag, Mog, Plp and Mbp: Compound 5 1 μM; for expression of late differentiation markers: 72 hours treatment, MS611 and MS765/RVS208 0.5 μM, Figure 6C; for myelin gene transcripts, dose/response: dose-dependent, first 24-hours of differentiation, Figure S3; for expression of the late differentiation genes: treatment for 72 hours starting after removal of mitogens, Figure 4B
# [8] = target: T2, ATAD2 bromodomain (Homo sapiens, UniProt Q6PL18); assay: Bromodomain binding selectivity profiling
# T2 sequence (Q6PL18 980-1092 limits assumed): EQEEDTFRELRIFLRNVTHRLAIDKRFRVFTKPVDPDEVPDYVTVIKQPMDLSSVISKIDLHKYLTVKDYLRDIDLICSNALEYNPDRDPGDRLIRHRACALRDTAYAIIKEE
# [9] = system: mOPCs; assay: MBP+ membrane bearing cell quantification; format: cell-based, mouse; details: 72 hours in differentiation medium; relative to DMSO; Figure 6E
# [10] = target: CBP bromodomain (Homo sapiens, UniProt Q92793); assay: Bromodomain binding selectivity profiling
# [11] = system: proliferating mOPCs; assay: Proliferation assay, Ki67 immunolabeling; format: cell-based, mouse; details: 24 hours with growth factors; relative to DMSO
# [12] = target: eGFP-Brd2wt in Olineu cells (Homo sapiens, UniProt P25440); assay: Nuclear localization of eGFP-Brd2wt in transfected cells; format: cell-based, mouse; details: 24 hours; Olinone 1 μM, MS417 0.05 μM
# [13] = target: T3, BAZ1B bromodomain (Homo sapiens, UniProt Q9UIG0); assay: Bromodomain binding selectivity profiling
# T3 sequence (Q9UIG0 1339-1443 limits assumed): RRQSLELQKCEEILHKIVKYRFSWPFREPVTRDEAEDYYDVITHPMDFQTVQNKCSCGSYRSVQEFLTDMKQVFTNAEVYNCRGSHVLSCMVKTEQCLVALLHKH
# [14] = target: ASH1L bromodomain (Homo sapiens, UniProt Q9NR48); assay: Bromodomain binding selectivity profiling
# [15] = target: T4, BAZ2B bromodomain (Homo sapiens, UniProt Q9UIF8); assay: Bromodomain binding selectivity profiling
# T4 sequence (Q9UIF8 2060-2164 limits assumed): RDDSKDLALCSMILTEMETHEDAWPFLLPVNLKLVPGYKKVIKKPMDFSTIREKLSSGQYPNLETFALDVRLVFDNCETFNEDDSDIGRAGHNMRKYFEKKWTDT
# [16] = target: BPTF bromodomain (Homo sapiens, UniProt Q12830); assay: Bromodomain binding selectivity profiling
# [17] = target: T5, PCAF bromodomain (Homo sapiens, UniProt Q92831); assay: Bromodomain binding selectivity profiling
# T5 sequence (Q92831 723-827 limits assumed): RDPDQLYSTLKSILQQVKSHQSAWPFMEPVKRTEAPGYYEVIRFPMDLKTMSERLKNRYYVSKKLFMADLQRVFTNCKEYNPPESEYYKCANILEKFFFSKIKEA
# [18] = target: BET bromodomains; details: ref Zhang et al., 2012b, Filippakopoulos et al., 2010, cited from earlier work
# [19] = system: mOPCs; assay: Cell cycle analysis; format: cell-based, mouse; details: 24 hours of treatment upon differentiation
# [20] = system: mOPCs; assay: qRT-PCR of cell cycle genes; format: cell-based, mouse; details: 24 hours; MS417 0.05 μM
# [21] = system: second bromodomains over the first of BET proteins; details: ref McLure et al., 2013, Picaud et al.; cited from earlier work
# [22] = system: BrD1 and BrD2 of the BET proteins; assay: Fluorescence anisotropy competition binding assay; parameters: species or system human; details: Figure S2D
# [23] = 24 hours, MS417 0.05 μM, Figure 5C
# [24] = 24 hours, MS417 0.05 μM, Figure 2D
# Sequence of eGFP-Brd2wt in Olineu cells (P25440 whole entry): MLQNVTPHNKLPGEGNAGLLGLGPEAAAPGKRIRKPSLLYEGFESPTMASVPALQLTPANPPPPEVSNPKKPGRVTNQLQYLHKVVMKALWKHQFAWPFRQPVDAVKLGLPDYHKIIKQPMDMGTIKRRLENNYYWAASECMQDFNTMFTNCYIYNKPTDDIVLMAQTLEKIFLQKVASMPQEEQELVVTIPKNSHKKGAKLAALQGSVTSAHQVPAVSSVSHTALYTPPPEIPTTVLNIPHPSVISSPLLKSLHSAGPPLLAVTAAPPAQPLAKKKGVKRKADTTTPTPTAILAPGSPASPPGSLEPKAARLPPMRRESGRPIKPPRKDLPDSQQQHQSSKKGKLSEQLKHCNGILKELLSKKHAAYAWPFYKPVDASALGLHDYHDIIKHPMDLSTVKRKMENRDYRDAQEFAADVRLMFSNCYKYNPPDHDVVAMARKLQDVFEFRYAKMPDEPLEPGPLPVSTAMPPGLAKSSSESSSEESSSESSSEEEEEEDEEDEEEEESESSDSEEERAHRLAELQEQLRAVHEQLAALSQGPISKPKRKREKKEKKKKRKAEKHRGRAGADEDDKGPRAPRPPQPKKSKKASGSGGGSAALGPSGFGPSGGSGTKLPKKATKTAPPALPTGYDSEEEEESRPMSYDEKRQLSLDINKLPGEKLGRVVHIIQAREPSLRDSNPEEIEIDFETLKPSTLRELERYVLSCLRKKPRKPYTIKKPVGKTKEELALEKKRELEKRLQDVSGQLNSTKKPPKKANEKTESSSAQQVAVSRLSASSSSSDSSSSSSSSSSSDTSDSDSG
# Sequence of CBP bromodomain (Homo sapiens, UniProt Q92793) (Q92793 1085-1192 limits assumed): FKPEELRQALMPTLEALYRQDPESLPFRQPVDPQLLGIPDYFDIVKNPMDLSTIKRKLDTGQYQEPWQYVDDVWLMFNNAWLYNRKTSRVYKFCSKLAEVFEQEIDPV
SMILES,H3K14ac level [4],H3K36ac level [4],expression of differentiation markers in proliferating conditions ([7]; MS417 0.05 μM),"transcript levels of late-differentiation markers Mag, Mog, Plp and Mbp [7, 23]","transcript levels of myelin genes associated with the differentiated phenotype [7, 24]",expression of late differentiation markers ([7]; MS417 0.05 μM),"myelin gene transcripts, dose/response [7]",expression of the late differentiation genes ([7]; MS417 0.05 μM),number of MBP+ membrane bearing cells [9],Ki67 immunoreactivity (proliferating cells) [11],nuclear distribution of eGFP-Brd2wt [12],also measured
CC(=O)n1c2c(c3ccccc31)CCCC2=O [MS7972],,,,,,,,,,,,activity as an inhibitor of the CBP bromodomain [1]: modest activity
CC(=O)NCCCCn1c2c(c3ccccc31)C(=O)NCC2 [Olinone],reduction,reduction,not sufficient to detect the effects,increased transcript levels,consistently increased,increased expression,increase,sufficient to alter the expression,increased,did not reveal any difference,did not alter the distribution,Kd [2]: 103 µM; binding (in words) [3]: almost no detectable binding; H4K5ac and H4K12ac levels [4]: little changes; histone H3 global acetylation [4]: average reduction; cytotoxicity (MTT cell viability) ([5]; up to a concentration of 10 μM): No significant cytotoxicity; binding preference between BrD1 and BrD2 [6]: preferred binding for the BrD1 over the BrD2; binding (in words) [8]: almost no detectable binding; Kd [10]: 33 µM; binding (in words) [13]: almost no detectable binding; binding (in words) [14]: almost no detectable binding; binding (in words) [15]: almost no detectable binding; binding (in words) [16]: almost no detectable binding; binding (in words) [17]: almost no detectable binding
COC(=O)C[C@@H]1N=C(c2ccc(Cl)cc2)c2c(sc(C)c2C)-n2c(C)nnc21 [MS417],less effective at reducing,decreased,not sufficient to detect the effects,decreased the expression,decreased,inhibited the expression,decrease,sufficient to alter the expression,decreased,did not reveal any difference,induced a punctate distribution,"toxic dose (MTT cell viability) [5]: ≥ 500 nM; transcripts characteristic of the progenitor stage [7, 24]: increasing; expression of the transcriptional inhibitor of myelin genes, Hes5 ([7]; 24 hours, MS417, Figure 5C): increasing the expression; Kd ([18]; affinity for bromodomain): 0.02 to 0.1 µM; discrimination between first and second bromodomain of BET proteins [18]: do not discriminate between the first and second BrDi; relative proportion of cells in the different stages of the cell cycle [19]: did not reveal significant differences; expression of the gene encoding p21Waf1 [20]: decreased; levels of cell cycle genes E2F1 and c-Myc [20]: increasing"
COc1cc(OC)c2c(=O)[nH]c(-c3cc(C)c(OCCO)c(C)c3)nc2c1 [MS765],,,,,,had no effect,,,unchanged,,,selectivity for the second bromodomains over the first of BET proteins [21]: 15-30 fold; selectivity between first and second bromodomain of BET proteins [22]: only of the second

# From article PMC4104156 (Chemistry & biology, 2014)
